pIC50: −log10 of the molar value.
target: USP7 (Homo sapiens, UniProt Q93009); assay: USP7 inhibitory potency (IC50); format: biochemical
Protocol: Activity for compounds described herein is provided in Table 2, wherein potency levels are provided as follows: (Potency: USP7 IC50: A<0.01 μM; B=0.01-0.1 μM; C=>0.1 μM.

Chain of USP7 (Q93009 whole entry): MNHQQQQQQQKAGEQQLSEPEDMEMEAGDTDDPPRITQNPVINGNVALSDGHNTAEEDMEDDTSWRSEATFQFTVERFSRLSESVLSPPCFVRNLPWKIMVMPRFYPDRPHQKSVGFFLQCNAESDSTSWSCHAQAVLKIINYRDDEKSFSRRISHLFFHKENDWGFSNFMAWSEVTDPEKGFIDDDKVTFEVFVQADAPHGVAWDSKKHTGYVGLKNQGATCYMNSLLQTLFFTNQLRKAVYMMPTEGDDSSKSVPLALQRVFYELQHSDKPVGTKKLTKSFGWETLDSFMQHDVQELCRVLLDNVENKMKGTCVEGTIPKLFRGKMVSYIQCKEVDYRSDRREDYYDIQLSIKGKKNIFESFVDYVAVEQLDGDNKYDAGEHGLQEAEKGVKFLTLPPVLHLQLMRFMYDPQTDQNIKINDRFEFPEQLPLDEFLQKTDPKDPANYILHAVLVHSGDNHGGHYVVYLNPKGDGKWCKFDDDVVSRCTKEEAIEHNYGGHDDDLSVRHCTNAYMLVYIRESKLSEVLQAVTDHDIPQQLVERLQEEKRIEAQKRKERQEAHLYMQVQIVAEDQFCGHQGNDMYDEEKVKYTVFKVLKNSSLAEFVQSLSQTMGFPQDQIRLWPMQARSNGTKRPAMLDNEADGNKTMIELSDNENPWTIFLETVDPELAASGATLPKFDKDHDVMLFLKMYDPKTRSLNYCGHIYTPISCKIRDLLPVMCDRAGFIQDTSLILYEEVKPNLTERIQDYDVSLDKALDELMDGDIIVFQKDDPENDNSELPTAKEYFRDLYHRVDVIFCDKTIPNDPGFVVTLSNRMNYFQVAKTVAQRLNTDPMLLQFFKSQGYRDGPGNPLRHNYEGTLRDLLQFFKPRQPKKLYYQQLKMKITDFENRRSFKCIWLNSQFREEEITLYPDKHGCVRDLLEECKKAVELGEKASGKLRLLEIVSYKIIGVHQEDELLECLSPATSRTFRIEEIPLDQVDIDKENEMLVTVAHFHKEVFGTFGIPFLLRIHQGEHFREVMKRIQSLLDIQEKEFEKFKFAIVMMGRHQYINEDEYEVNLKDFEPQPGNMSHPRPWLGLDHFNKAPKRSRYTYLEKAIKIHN

Row | pIC50 | SMILES
1 | 7.00 to 8.00 | Cc1cc(Cl)cc(-c2ccnc3cc(CN4C(=O)CCC4=O)sc23)c1CC1CNCCO1 (centres unmarked) [Example 96, 1-((7-(5-chloro-3-methyl-2-(morpholin-2-ylmethyl)phenyl)thieno[3,2-b]pyridin-2-yl)methyl)pyrrolidine-2,5-dione]
2 | 7.00 to 8.00 | Cc1cc(Cl)cc(-c2ncnc3cc(CN4CCCC4=O)sc23)c1C[C@@H]1CNCC(C)(C)O1 [Example 235, (R)-1-((4-(5-chloro-2-((6,6-dimethylmorpholin-2-yl)methyl)-3-methylphenyl)thieno[3,2-d]pyrimidin-6-yl)methyl)pyrrolidin-2-one]
3 | 7.00 to 8.00 | Cc1cc(Cl)cc(-c2ncnc3cc(CN4C(=O)C5CC5C4=O)sc23)c1C[C@H]1CNCCO1 (stereo partly drawn) [Example 181, 3-((4-(5-chloro-3-methyl-2-(((S)-morpholin-2-yl)methyl)phenyl)thieno[3,2-d]pyrimidin-6-yl)methyl)-3-azabicyclo[3.1.0]hexane-2,4-dione]
4 | > 8.00 | Cc1cc(Cl)cc(-c2ccnc3cc(Cn4c(=O)ccn(C)c4=O)sc23)c1CC1CNCC2(CCC2)O1 (centres unmarked) [Example 145, 3-((7-(2-((5-oxa-8-azaspiro[3.5]nonan-6-yl)methyl)-5-chloro-3-methylphenyl)thieno[3,2-b]pyridin-2-yl)methyl)-1-methylpyrimidine-2,4(1H,3H)-dione]
5 | > 8.00 | Cc1cc(Cl)cc(-c2ccnc3cc(CN4C(=O)CCN(C)C4=O)sc23)c1CC1CNCC2(CCC2)O1 (centres unmarked) [Example 144, 3-((7-(2-((5-oxa-8-azaspiro[3.5]nonan-6-yl)methyl)-5-chloro-3-methylphenyl)thieno[3,2-b]pyridin-2-yl)methyl)-1-methyldihydropyrimidine-2,4(1H,3H)-dione]
6 | 7.00 to 8.00 | Cc1cc(Cl)cc(-c2ccnc3cc(CN4C(=O)C5CC5C4=O)sc23)c1CN1CCCNC(C)C1 (centres unmarked) [Example 41, 3-((7-(5-chloro-3-methyl-2-((3-methyl-1,4-diazepan-1-yl)methyl)phenyl)thieno[3,2-b]pyridin-2-yl)methyl)-3-azabicyclo[3.1.0]hexane-2,4-dione]
7 | > 8.00 | Cc1cc(Cl)cc(-c2ncnc3cc(CN4C(=O)C5CC5C4=O)sc23)c1CN1CCNC[C@@H]1C (stereo partly drawn) [Example 51, 3-((4-(5-chloro-3-methyl-2-(((S)-2-methylpiperazin-1-yl)methyl)phenyl)thieno[3,2-d]pyrimidin-6-yl)methyl)-3-azabicyclo[3.1.0]hexane-2,4-dione]
8 | < 7.00 | Cc1cc(Cl)cc(-c2ncnc3cc(CN4C(=O)CC[C@H]4C(F)(F)F)sc23)c1CN1[C@@H](C)CNC[C@@H]1C [Example 90, (S)-1-((4-(5-chloro-2-(((2S,6S)-2,6-dimethylpiperazin-1-yl)methyl)-3-methylphenyl)thieno[3,2-d]pyrimidin-6-yl)methyl)-5-(trifluoromethyl)pyrrolidin-2-one]
9 | < 7.00 | Cc1cc(Cl)cc(-c2ccnc3cc(Cn4c(=O)ccn(CC(F)(F)F)c4=O)sc23)c1CN1CCNCC1=O [Example 4, 3-((7-(5-chloro-3-methyl-2-((2-oxopiperazin-1-yl)methyl)phenyl)thieno[3,2-b]pyridin-2-yl)methyl)-1-(2,2,2-trifluoroethyl)pyrimidine-2,4(1H,3H)-dione]
10 | 7.00 to 8.00 | Cc1cc(Cl)cc(-c2ncnc3cc(CN4C(=O)C5C(C4=O)C5(C)C)sc23)c1CN1CCN(C)C[C@@H]1C (stereo partly drawn) [Example 53, 3-((4-(5-chloro-2-(((S)-2,4-dimethylpiperazin-1-yl)methyl)-3-methylphenyl)thieno[3,2-d]pyrimidin-6-yl)methyl)-6,6-dimethyl-3-azabicyclo[3.1.0]hexane-2,4-dione]
11 | 7.00 to 8.00 | Cc1cc(Cl)cc(-c2ccnc3cc(CN4C(=O)CCC4C(F)(F)F)sc23)c1CC1CNCCO1 (centres unmarked) [Example 114, 1-((7-(5-chloro-3-methyl-2-(morpholin-2-ylmethyl)phenyl)thieno[3,2-b]pyridin-2-yl)methyl)-5-(trifluoromethyl)pyrrolidin-2-one]
12 | > 8.00 | Cc1cc(Cl)cc(-c2ncnc3cc(CN4C(=O)C5CCCN5C4=O)sc23)c1CC1CNCC(C)(C)O1 (centres unmarked) [Example 191, 2-((4-(5-chloro-2-((6,6-dimethylmorpholin-2-yl)methyl)-3-methylphenyl)thieno[3,2-d]pyrimidin-6-yl)methyl)tetrahydro-1H-pyrrolo[1,2-c]imidazole-1,3(2H)-dione]
13 | > 8.00 | Cc1cc(Cl)cc(-c2ccnc3cc(CN4C(=O)C5CC5C4=O)sc23)c1C[C@@H]1CNCC(C)(C)O1 (stereo partly drawn) [Example 129, 3-((7-(5-chloro-2-(((R)-6,6-dimethylmorpholin-2-yl)methyl)-3-methylphenyl)thieno[3,2-b]pyridin-2-yl)methyl)-3-azabicyclo[3.1.0]hexane-2,4-dione]
14 | 7.00 to 8.00 | Cc1cc(Cl)cc(-c2ncnc3cc(CNC4(CCC(=O)O)CC4)sc23)c1CC1CNCC(C)(C)O1 (centres unmarked) [Example 202, 3-(1-(((4-(5-chloro-2-((6,6-dimethylmorpholin-2-yl)methyl)-3-methylphenyl)thieno[3,2-d]pyrimidin-6-yl)methyl)amino)cyclopropyl)propanoic acid]
15 | 7.00 to 8.00 | Cc1cc(Cl)cc(-c2ccnc3cc(CN4C(=O)C5C(C4=O)C5(C)C)sc23)c1CC1OCCNC1=O (centres unmarked) [Example 101, 3-((7-(5-chloro-3-methyl-2-((3-oxomorpholin-2-yl)methyl)phenyl)thieno[3,2-b]pyridin-2-yl)methyl)-6,6-dimethyl-3-azabicyclo[3.1.0]hexane-2,4-dione]
16 | > 8.00 | Cc1cc(Cl)cc(-c2ccnc3cc(CN4C(=O)CCC4=O)sc23)c1CN1C[C@@H](C)NC[C@@H]1C [Example 44, 1-((7-(5-chloro-2-(((2S,5R)-2,5-dimethylpiperazin-1-yl)methyl)-3-methylphenyl)thieno[3,2-b]pyridin-2-yl)methyl)pyrrolidine-2,5-dione]
17 | > 8.00 | Cc1cc(Cl)cc(-c2ncnc3cc(Cn4ccc(=O)[nH]c4=O)sc23)c1C[C@@H]1CNCC(C)(C)O1 [Example 267, (R)-1-((4-(5-chloro-2-((6,6-dimethylmorpholin-2-yl)methyl)-3-methylphenyl)thieno[3,2-d]pyrimidin-6-yl)methyl)pyrimidine-2,4(1H,3H)-dione]
18 | > 8.00 | Cc1cc(Cl)cc(-c2ccnc3cc(CN4C(=O)CCC4=O)sc23)c1CC1CNCC(C)(C)O1 (centres unmarked) [Example 119, 1-((7-(5-chloro-2-((6,6-dimethylmorpholin-2-yl)methyl)-3-methylphenyl)thieno[3,2-b]pyridin-2-yl)methyl)pyrrolidine-2,5-dione]
19 | > 8.00 | Cc1cc(Cl)cc(-c2ncnc3cc(CN4C(=O)C5CC5C4=O)sc23)c1CN1C[C@@H](C)NC[C@@H]1C (stereo partly drawn) [Example 65, 3-((4-(5-chloro-2-(((2S,5R)-2,5-dimethylpiperazin-1-yl)methyl)-3-methylphenyl)thieno[3,2-d]pyrimidin-6-yl)methyl)-3-azabicyclo[3.1.0]hexane-2,4-dione]
20 | > 8.00 | Cc1cc(Cl)cc(-c2ncnc3cc(CN4C(=O)CCN(C)C4=O)sc23)c1C[C@@H]1CNCC(C)(C)O1 [Example 217, (R)-3-((4-(5-chloro-2-((6,6-dimethylmorpholin-2-yl)methyl)-3-methylphenyl)thieno[3,2-d]pyrimidin-6-yl)methyl)-1-methyldihydropyrimidine-2,4(1H,3H)-dione]
